One block for each compound: values may come before it. Activity calls are given as the source filed them.
Columns and labels:
[1] = molecular target: T1, Prostaglandin G/H synthase 2 (Homo sapiens, UniProt P35354); experiment: biochemical; format: cell-based, Sf9
T1 sequence (P35354 whole entry): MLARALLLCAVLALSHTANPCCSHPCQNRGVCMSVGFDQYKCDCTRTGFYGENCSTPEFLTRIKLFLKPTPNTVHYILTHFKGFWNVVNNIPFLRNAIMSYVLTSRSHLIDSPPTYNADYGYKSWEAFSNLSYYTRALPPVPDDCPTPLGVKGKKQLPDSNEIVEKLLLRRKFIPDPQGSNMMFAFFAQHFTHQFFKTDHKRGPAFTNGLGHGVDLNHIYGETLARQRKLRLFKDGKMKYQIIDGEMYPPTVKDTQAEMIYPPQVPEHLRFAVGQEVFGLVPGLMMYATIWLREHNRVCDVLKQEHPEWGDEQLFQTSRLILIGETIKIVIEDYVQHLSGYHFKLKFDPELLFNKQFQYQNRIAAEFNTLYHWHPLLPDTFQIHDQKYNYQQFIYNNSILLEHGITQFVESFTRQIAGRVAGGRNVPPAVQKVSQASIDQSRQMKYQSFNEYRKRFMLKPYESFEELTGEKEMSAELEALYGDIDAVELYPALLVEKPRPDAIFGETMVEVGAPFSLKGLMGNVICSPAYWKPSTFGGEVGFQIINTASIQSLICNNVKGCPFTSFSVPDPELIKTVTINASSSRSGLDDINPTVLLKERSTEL

[2] = molecular target: T1, Prostaglandin G/H synthase 2; format: tissue-based, Blood
Description: Inhibition of COX2 in human whole blood assessed as inhibition of lipopolysaccharide-stimulated PGE2 production after 24 hrs by enzyme immunoassay

[3] = Blood clearance in rat at 1 mg/kg/hr, iv; format: ADME, organism-based; design: route intravenous; settings: whole blood
[4] = Volume of distribution at steady state in rat at 1 mg/kg/hr, iv; format: ADME, organism-based; design: route intravenous; settings: in vivo, read-out: Vdss
[5] = Oral bioavailability in rat at 1 mg/kg; format: ADME, organism-based; settings: in vivo
Rattus norvegicus [6] = experiment: Antihyperalgesic activity against chronic constriction nerve injury-induced hyperalgesia in rat assessed as reversal of decrease in the paw withdrawal threshold at 5 mg/kg, po bid for 10 days measured on day 3 postdose; format: functional, organism-based; design: dose 5 mg/kg
Rattus norvegicus [7] = experiment: Antihyperalgesic activity against chronic constriction nerve injury-induced hyperalgesia in rat assessed as reversal of decrease in the paw withdrawal threshold at 5 mg/kg, po bid for 10 days measured on day 7 postdose; format: functional, organism-based; design: dose 5 mg/kg
Rattus norvegicus [8] = experiment: Antihyperalgesic activity against chronic constriction nerve injury-induced hyperalgesia in rat assessed as reversal of decrease in the paw withdrawal threshold at 5 mg/kg, po bid for 10 days measured on day 10 postdose; format: functional, organism-based; design: dose 5 mg/kg
Rattus norvegicus [9] = species on record: Rattus norvegicus; experiment: Analgesic activity against Freund's adjuvant-induced pain in rat model of acute inflammatory pain assessed as reversal of adjuvant hypersensitivity; format: functional
[10] = Terminal half life in rat at 1 mg/kg/hr, iv; format: ADME, organism-based; design: route intravenous; settings: in vivo, read-out: beta t1/2 (converted)
in vivo = settings: rat, brain / blood
Description: Ratio of drug level in brain to blood in rat

[11] = molecular target: T1, Prostaglandin G/H synthase 2; format: cell-based, COS
[12] = molecular target: T2, Prostaglandin G/H synthase 1 (Homo sapiens, UniProt P23219); experiment: biochemical; format: cell-based, COS
T2 sequence (P23219 whole entry): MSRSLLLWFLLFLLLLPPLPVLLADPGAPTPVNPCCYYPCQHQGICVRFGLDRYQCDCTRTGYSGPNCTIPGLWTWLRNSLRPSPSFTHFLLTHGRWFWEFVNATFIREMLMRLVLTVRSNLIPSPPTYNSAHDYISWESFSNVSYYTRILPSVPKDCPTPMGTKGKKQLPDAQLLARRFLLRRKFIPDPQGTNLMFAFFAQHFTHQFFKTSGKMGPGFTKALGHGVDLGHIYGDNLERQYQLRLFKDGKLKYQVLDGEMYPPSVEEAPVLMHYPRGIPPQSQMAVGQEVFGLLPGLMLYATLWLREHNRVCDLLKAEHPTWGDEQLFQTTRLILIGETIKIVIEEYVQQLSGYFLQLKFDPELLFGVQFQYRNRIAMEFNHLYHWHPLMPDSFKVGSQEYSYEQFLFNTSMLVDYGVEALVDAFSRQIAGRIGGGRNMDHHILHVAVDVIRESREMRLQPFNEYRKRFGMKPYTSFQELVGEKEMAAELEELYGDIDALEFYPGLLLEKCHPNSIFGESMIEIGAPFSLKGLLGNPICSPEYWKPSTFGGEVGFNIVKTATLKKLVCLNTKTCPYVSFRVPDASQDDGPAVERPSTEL

COS = experiment: Selectivity ratio of IC50 for human COX1 to IC50 for human COX2 expressed in african green monkey COS cells; format: cell-based
[13] = molecular target: T2, Prostaglandin G/H synthase 1; experiment: biochemical; format: cell-based, Sf9
[14] = Selectivity ratio of IC50 for human COX1 to IC50 for human COX2 expressed in baculovirus-infected SF9 cells
[15] = molecular target: T2, Prostaglandin G/H synthase 1; format: tissue-based, Blood
Homo sapiens = species on record: Homo sapiens; experiment: Selectivity ratio of IC50 for COX1 to IC50 for COX2 in human whole blood; format: tissue-based
[16] = Oral bioavailability in rat at 5 mg/kg; format: ADME, organism-based; settings: in vivo

Compound: CCCCOc1nc(-c2ccc(S(C)(=O)=O)cc2)cc(C(F)(F)F)n1
IC50 [1]: 0.0215 µM
IC50 [2]: 0.158 µM
clearance [3]: 24 mL/min/kg
Vd [4]: 5.7 L/kg
bioavailability [5]: 84%
Activity (Rattus norvegicus [6]): Active
Activity (Rattus norvegicus [7]): Active
Activity (Rattus norvegicus [8]): Active
ED50 (Rattus norvegicus [9]): 2.1 mg/kg
half-life [10]: 4.2 h
Kp (in vivo): 3.2

Compound: Cc1c(-c2ccc(S(C)(=O)=O)cc2)nc(NC2CCCCC2)nc1C(F)(F)F
IC50 [11]: > 10 µM
IC50 [12]: > 100 µM
Ratio IC50 (COS): inactive

Compound: CS(=O)(=O)c1ccc(-c2cc(C(F)(F)F)nc(NC3CCCCC3)n2)cc1
IC50 [12]: > 58.4 µM
Ratio IC50 (COS): > 117000
IC50 [2]: 0.062 µM
IC50 [15]: 11.6 µM
Ratio IC50 (Homo sapiens): 187

Compound: NS(=O)(=O)c1ccc(-c2cc(C(F)(F)F)nc(NC3CCCCC3)n2)cc1
IC50 [11]: 0.0024 µM
IC50 [12]: 0.167 µM
Ratio IC50 (COS): 69.5

Compound: Cc1ccc(-c2ncc(Cl)cc2-c2ccc(S(C)(=O)=O)cc2)cn1 [ETORICOXIB]
IC50 [15]: > 100 µM

Compound: CS(=O)(=O)c1ccc(-c2cc(N)nc(NC3CCCCC3)n2)cc1
IC50 [11]: > 10 µM
IC50 [12]: > 100 µM
Ratio IC50 (COS): inactive

Compound: Cc1ccc(Oc2nc(-c3ccc(S(C)(=O)=O)cc3)cc(C(F)(F)F)n2)cc1
Ratio IC50 [14]: > 375

Compound: CS(=O)(=O)c1ccc(-c2cc(C(F)(F)F)nc(NCC3CCOCC3)n2)cc1
IC50 [11]: 0.005 µM
IC50 [12]: 100 µM
Ratio IC50 (COS): 20000

Compound: CS(=O)(=O)c1ccc(-c2cc(C(N)=O)nc(NC3CCCCC3)n2)cc1
IC50 [11]: > 10 µM
IC50 [12]: > 100 µM
Ratio IC50 (COS): inactive

Compound: CS(=O)(=O)c1ccc(-c2ccnc(NC3CCCCC3)n2)cc1
IC50 [11]: > 10 µM
IC50 [12]: > 100 µM
Ratio IC50 (COS): inactive

Compound: CS(=O)(=O)c1ccc(-c2cc(C(=O)O)nc(NC3CCCCC3)n2)cc1
IC50 [11]: > 10 µM
IC50 [12]: > 100 µM
Ratio IC50 (COS): inactive

Compound: Cc1cnc(NC2CCCCC2)nc1-c1ccc(S(C)(=O)=O)cc1
IC50 [11]: > 10 µM
IC50 [12]: > 100 µM
Ratio IC50 (COS): inactive

Compound: Cc1cccc(Oc2nc(-c3ccc(S(C)(=O)=O)cc3)cc(C(F)(F)F)n2)c1
IC50 [1]: < 0.01 µM
IC50 [13]: 4.36 µM
Ratio IC50 [14]: > 436

Compound: CS(=O)(=O)c1ccc(-c2cc(C(F)(F)F)nc(NCc3ccccc3)n2)cc1
IC50 [12]: > 100 µM
Ratio IC50 (COS): > 400000
IC50 [2]: 0.008 µM
IC50 [15]: 39.3 µM
Ratio IC50 (Homo sapiens): 4910

Compound: Cc1ccc(N(C)c2nc(-c3ccc(S(C)(=O)=O)cc3)cc(C(F)(F)F)n2)cc1
IC50 [11]: 0.003 µM
IC50 [12]: > 74.2 µM
Ratio IC50 (COS): > 24700

Compound: CS(=O)(=O)c1ccc(C2=C(c3ccccc3)C(=O)OC2)cc1 [ROFECOXIB]
Kp (in vivo): 0.8

Compound: Cc1cc(-c2ccc(S(C)(=O)=O)cc2)nc(NC2CCCCC2)n1
IC50 [11]: 1.68 µM
IC50 [12]: > 100 µM
Ratio IC50 (COS): > 59

Compound: CS(=O)(=O)c1ccc(-c2cc(C(F)(F)F)nc(OC3CCC3)n2)cc1
IC50 [1]: < 0.01 µM
IC50 [13]: 19 µM
Ratio IC50 [14]: > 1900

Compound: CS(=O)(=O)c1ccc(-c2cc(C(F)(F)F)nc(OCC3CCCCC3)n2)cc1
IC50 [1]: 0.045 µM
IC50 [13]: > 100 µM
Ratio IC50 [14]: > 2220

Compound: CCCCNc1nc(-c2ccc(S(C)(=O)=O)cc2)cc(C(F)(F)F)n1
IC50 [11]: 0.0013 µM
IC50 [12]: > 100 µM
Ratio IC50 (COS): > 76900
IC50 [2]: 0.07 µM
IC50 [15]: > 96.2 µM
Ratio IC50 (Homo sapiens): > 1370

Compound: CS(=O)(=O)c1ccc(-c2cc(C(F)(F)F)nc(OC3CCCCCC3)n2)cc1
IC50 [1]: < 0.01 µM
IC50 [13]: 1.92 µM
Ratio IC50 [14]: > 192

Compound: CS(=O)(=O)c1ccc(-c2cc(C(F)(F)F)nc(NCC3CCCCC3)n2)cc1
IC50 [11]: 0.029 µM
IC50 [12]: > 100 µM
Ratio IC50 (COS): > 3450

Compound: CS(=O)(=O)c1ccc(-c2cc(OCC(F)(F)F)nc(NC3CCCCC3)n2)cc1
IC50 [11]: 0.016 µM
IC50 [12]: 6.32 µM
Ratio IC50 (COS): 395

Further lines, with some results ahead:

IC50 [11]: 0.272 µM
IC50 [12]: > 100 µM
Compound: CS(=O)(=O)c1ccc(-c2cc(C(F)(F)F)nc(N)n2)cc1
Ratio IC50 (COS): > 368

IC50 [11]: 0.011 µM
IC50 [12]: > 100 µM
Compound: Cc1ccc(Nc2nc(-c3ccc(S(C)(=O)=O)cc3)cc(C(F)(F)F)n2)cc1
Ratio IC50 (COS): > 9090

IC50 [1]: 0.063 µM
IC50 [13]: 52.6 µM
Compound: CC(C)Oc1nc(-c2ccc(S(C)(=O)=O)cc2)cc(C(F)(F)F)n1
Ratio IC50 [14]: 834

IC50 [11]: > 10 µM
IC50 [12]: > 100 µM
Compound: CS(=O)(=O)c1ccc(-c2cc(C(F)(F)F)nc(NC3CCNCC3)n2)cc1
Ratio IC50 (COS): inactive

IC50 [1]: 0.033 µM
IC50 [13]: 52 µM
Compound: CC(C)(C)Oc1nc(-c2ccc(S(C)(=O)=O)cc2)cc(C(F)(F)F)n1
Ratio IC50 [14]: 1580

IC50 [1]: < 0.01 µM
IC50 [13]: 3 µM
Compound: CS(=O)(=O)c1ccc(-c2cc(C(F)(F)F)nc(OC3CCCCCCC3)n2)cc1
Ratio IC50 [14]: > 300

IC50 [12]: > 91.6 µM
Compound: CS(=O)(=O)c1ccc(-c2cc(C(F)(F)F)nc(NC3CCOCC3)n2)cc1
Ratio IC50 (COS): > 5090

IC50 [1]: < 0.01 µM
IC50 [13]: 4.04 µM
Compound: CS(=O)(=O)c1ccc(-c2cc(C(F)(F)F)nc(OC3CCCC3)n2)cc1
Ratio IC50 [14]: > 404

IC50 [1]: 1.03 µM
Compound: CS(=O)(=O)c1ccc(-c2cc(C(F)(F)F)nc(OCC3CCCCCC3)n2)cc1
Ratio IC50 [14]: inactive

IC50 [11]: 0.005 µM
IC50 [12]: > 100 µM
Compound: CCCNc1nc(-c2ccc(S(C)(=O)=O)cc2)cc(C(F)(F)F)n1
Ratio IC50 (COS): > 2000

IC50 [11]: 0.002 µM
IC50 [12]: > 66.2 µM
IC50 [1]: 0.012 µM
IC50 [13]: > 100 µM
IC50 [2]: 0.206 µM
IC50 [15]: 62 µM
clearance [3]: 10 mL/min/kg
Vd [4]: 6 L/kg
bioavailability [16]: 107%
half-life [10]: 9 h
Compound: CC(C)CNc1nc(-c2ccc(S(C)(=O)=O)cc2)cc(C(F)(F)F)n1
Ratio IC50 (COS): > 33100
Ratio IC50 [14]: > 8330
Ratio IC50 (Homo sapiens): 301
ED50 (Rattus norvegicus [9]): 0.5 mg/kg

IC50 [11]: < 0.01 µM
IC50 [12]: > 100 µM
Compound: Cc1ccc(CNc2nc(-c3ccc(S(C)(=O)=O)cc3)cc(C(F)(F)F)n2)cc1
Ratio IC50 (COS): > 10000

IC50 [11]: 0.0056 µM
IC50 [12]: > 100 µM
Compound: CS(=O)(=O)c1ccc(-c2cc(C(F)(F)F)nc(Nc3ccccc3)n2)cc1
Ratio IC50 (COS): > 17900

IC50 [11]: 0.0072 µM
IC50 [12]: > 65.8 µM
Compound: CS(=O)(=O)c1ccc(-c2cc(C(F)(F)F)nc(Nc3ccc(F)cc3)n2)cc1
Ratio IC50 (COS): > 9140

IC50 [11]: < 0.0014 µM
IC50 [12]: 0.7 µM
Compound: CCCCNc1nc(-c2ccc(S(N)(=O)=O)cc2)cc(C(F)(F)F)n1
Ratio IC50 (COS): > 500

Source: ChEMBL document CHEMBL1153635, “Identification of [4-[4-(methylsulfonyl)phenyl]-6-(trifluoromethyl)-2-pyrimidinyl] amines and ethers as potent and selective cyclooxygenase-2 inhibitors” (Bioorg Med Chem Lett, 2009)
